Data taken from US9456992B2 (XSPRAY MICROPARTICLES AB, priority 2012, dated 2016).
Where a name gives a salt, the structure may show the parent alone. One block for each compound: values may come before it.

How the values were obtained:
[1] = Dissolution rate measurement in sink conditions, flow through cell system, FaSSIF, 37° C.; assay type: physicochemical; conditions: sink condition in FaSSIF; for Initial Dissolution Rate: initial slope of accumulated % solubilized vs time, 0 to 10 minutes, 37° C.
Method: Typically, said dissolution rate is measured by a flow through cell system in sink conditions, e.g., according to the US Pharmacopea (USP4). Dissolution measurement in sink conditions of hybrid nanoparticles may be measured in a method consisting of adding the wished amount of powder into a flow through cell system (SOTAX, Allschwill, Switzerland), mounting the cell onto its apparatus and then pumping the appropriate medium (typically FaSSIF, FeSSIF, SGF) through the powder. The temperature of the apparatus is typically set to 37° C. The amount of powder added into the cell depends on drug load of the powder: The exact amount of powder can be calculated from results obtained from drug load analysis of the powders. The PKI may be added into the flow through cell and a flow rate between 5 and 25 ml medium/min is pumped through the powder. […] Samples are typically taken after 0, 0.5, 1, 1.5, 2, 3, 4, 5, 6, 7, 8, 9, 10, 15, 20, 25, 30, 35 and 40 min from the moment the medium comes out from the flow through cell. The accumulated % solubilized of the amount of active substance added into the flow through cell can be calculated and plotted against time (min). The initial slope (“initial dissolution rate”, representing 0-10 minutes) of the graph may be estimated and taken as the dissolution rate of the material in sink condition at 37° C. in the given dissolution medium.
Typically, said dissolution rate is measured by a flow through cell system, for instance in sink conditions. […] The temperature of the apparatus is typically set to 37° C. The amount of powder added into the cell depends on drug load of the powder: The exact amount of powder can be calculated from results obtained from drug load analysis of the powders. The PKI may be added into the flow through cell and a flow rate between 5 and 25 ml medium/min is pumped through the powder. […] Samples are typically taken after 0, 0.5, 1, 1.5, 2, 3, 4, 5, 6, 7, 8, 9, 10, 15, 20, 25, 30, 35 and 40 min from the moment the medium comes out from the flow through cell. The accumulated % solubilized of the amount of active substance added into the flow through cell, can be calculated and plotted against time (min). The initial slope (“initial dissolution rate”, representing 0-10 minutes) of the graph can be estimated and taken as the dissolution rate of the material in sink condition at 37° C. in the given dissolution medium.
Dissolution measurement in sink conditions of compositions of the invention were measured in a method consisting of adding the wished amount of powder into a flow through cell system (SOTAX, Allschwill, Switzerland), mounting the cell onto its apparatus and then pumping the appropriate medium (typically FaSSIF, FeSSIF, SGF) through the powder. The temperature of the apparatus was set to 37° C. The amount of powder added into the cell depends on drug load of the powder: The exact amount of powder was calculated from results obtained from drug load analysis of the powders.
Typically, 3.5 to 7 mg PKI was added into the flow through cell and a flow rate between 8 and 16 ml medium/min (preferably about 8 ml medium/min) was pumped through the powder. One ml samples of the medium passing through the cell were collected at predetermined times. […] Samples were taken after 0, 0.5, 1, 1.5, 2, 3, 4, 5, 6, 7, 8, 9, 10, 15, 20, 25, 30, 35 and 40 min from the moment the medium comes out from the flow through cell. The accumulated % solubilized of the amount of active substance added into the flow through cell was calculated and plotted against time (min). The initial slope (“initial dissolution rate”) of the graph was estimated, as measured during 0 to 10 minutes, and taken as the dissolution rate of the material in sink condition at 37° C. in the given dissolution medium.

[2] = Dissolution measurement assay (apparent solubility, non-sink) in FaSSIF solution (pH 6.5); conditions: for AUC/ 80 min. Mg/min/L: Area Under the Curve during 80 minutes dissolution in FaSSIF solution (pH 6.5)
Method: The medium was prepared in accordance with the manufacturer's instructions. The amount of powder added depends on the wished “total PKI concentration”. […] For other experiments, the drug load was first estimated by HPLC and the amount of powder to obtain the drug concentration was calculated.
Typically, the powder was added in a 8 mL glass bottle and 7 mL of solution was added (typically FaSSIF, FeSSIF or SGF). The glass bottle was put on a shaker (approximately 1 rotation per minute) for dissolution. Samples of 500 μl where taken after different times, and subsequently centrifuged at approximately 15000 g for 3 minutes. The resulting supernatant was then analyzed by HPLC (C18 column Eclipse, 4.6 mm×15 cm, 1 mL/min, detection at […]. Generally samples were taken after 5, 30 and 90 min and eventually 150 min.
(§1) A number of experiments were carried out, wherein nilotinib base or nilotinib HCl represented the protein kinase inhibitor. The experiments were carried out by measuring concentration of solubilized PKI (mg/L) after 5, 30 and 90 minutes dissolution in a solution at about pH 6.5, namely FaSSIF (Fasted State Simulated Intestinal Fluid). Further, experiments were carried out in an alternative solution at about pH 5, namely FeSSIF (Fed State Simulated Intestinal Fluid). Samples of the solution were taken at various time intervals and the amount of protein kinase inhibitor was measured by the dissolution measurement assay described above.
as §1, with “erlotinib” for “nilotinib base or nilotinib”, “PKI.” for “protein kinase inhibitor.”, “of” for “of solubilized”, “PKI” for “protein kinase inhibitor”
as §1, with “pazopanib” for “nilotinib base or nilotinib HCl”, “PKI.” for “protein kinase inhibitor.”, “of” for “of solubilized”, “PKI” for “protein kinase inhibitor”
(§2) A number of experiments were carried out, wherein lapatinib base or lapatinib ditosylate salt represented the PKI. The experiments were carried out by measuring concentration of PKI (mg/L) after 5, 30 and 90 minutes dissolution in a solution at about pH 6.5, namely FaSSIF (Fasted State Simulated Intestinal Fluid). Samples of the solution were taken at various time intervals and the amount of PKI was measured by the dissolution measurement assay described above.
as §2, with “gefitinib” for “lapatinib base or lapatinib ditosylate salt”, “3, 40” for “5, 30”, “80” for “90”
as §2, with “dasatinib” for “lapatinib base or lapatinib ditosylate salt”, “3, 40” for “5, 30”, “80” for “90”

[3] = nilotinib HCl, FaSSIF solution (pH 6.5), after 30 minutes dissolution, HCl

Structure (SMILES): C#Cc1cccc(Nc2ncnc3cc(OCCOC)c(OCCOC)cc23)c1 [Exp 58, erlotinib HCl]
Conc (mg/L) 90 min ([2]; 90 min, pH 6.5): 4.6 mg/L
% solubilized 30 min. ([2]; erlotinib HCl, FaSSIF solution (pH 6.5), 30 min dissolution): 0.6%
AUC/ 90 min. ([2]; erlotinib HCl, FaSSIF solution (pH 6.5), AUC during 90 min dissolution): 837 Mg/min/L

Structure (SMILES): Cc1cn(-c2cc(NC(=O)c3ccc(C)c(Nc4nccc(-c5cccnc5)n4)c3)cc(C(F)(F)F)c2)cn1 [Exp 2, Nilotinib HCl]
% solubilized 30 min. [2, 3]: 0.04%

Structure (SMILES): CNC(=O)c1ccccc1Sc1ccc2c(/C=C/c3ccccn3)n[nH]c2c1 [Exp 157, axitinib]
Conc (mg/L) 3 min ([2]; pH 6.5): 0.6 mg/L
Conc (mg/L) 40 min ([2]; 40 min, pH 6.5): 0.6 mg/L
Conc (mg/L) 80 min ([2]; pH 6.5): 0.6 mg/L
AUC/ 80 min. Mg/min/L ([2]; axitinib): 4.7 Mg/min/L
% solubilized 40 min. ([2]; axitinib, after 40 minutes dissolution in FaSSIF solution (pH 6.5)): 0.1%

Structure (SMILES): Cc1ccc(Nc2nccc(N(C)c3ccc4c(C)n(C)nc4c3)n2)cc1S(N)(=O)=O [Exp 84, pazopanib]
% solubilized 30 min. ([2]; 30 min, pH 6.5): 2.4%
Conc (mg/L) 90 min ([2]; 90 min, pH 6.5): 15.0 mg/L

Structure (SMILES): Cc1cn(-c2cc(NC(=O)c3ccc(C)c(Nc4nccc(-c5cccnc5)n4)c3)cc(C(F)(F)F)c2)cn1 [Exp 3, Nilotinib HCl]
% solubilized 30 min. [2, 3]: 0.03%

Structure (SMILES): Cc1cn(-c2cc(NC(=O)c3ccc(C)c(Nc4nccc(-c5cccnc5)n4)c3)cc(C(F)(F)F)c2)cn1 [Exp 4, Nilotinib Base]
% solubilized 30 min. ([2]; nilotinib HCl, FaSSIF solution (pH 6.5), after 30 minutes dissolution): 0.50%

Structure (SMILES): CNC(=O)c1cc(Oc2ccc(NC(=O)Nc3ccc(Cl)c(C(F)(F)F)c3)cc2)ccn1.Cc1ccc(S(=O)(=O)O)cc1 [Experiment 560]
Accumulated % of solubilized of remaining active substance at a given time (min) ([1]; 0 min): 0.2%
Accumulated % of solubilized of remaining active substance at a given time (min) ([1]; 0.5 min): 0.4%
Accumulated % of solubilized of remaining active substance at a given time (min) ([1]; 1 min): 0.7%
Accumulated % of solubilized of remaining active substance at a given time (min) ([1]; 1.5 min): 1.0%
Accumulated % of solubilized of remaining active substance at a given time (min) ([1]; 2 min): 1.3%
Accumulated % of solubilized of remaining active substance at a given time (min) ([1]; 3 min): 1.8%
Accumulated % of solubilized of remaining active substance at a given time (min) ([1]; 4 min): 2.2%
Accumulated % of solubilized of remaining active substance at a given time (min) ([1]; 5 min): 2.6%
Accumulated % of solubilized of remaining active substance at a given time (min) ([1]; 6 min): 3.0%
Accumulated % of solubilized of remaining active substance at a given time (min) ([1]; 7 min): 3.4%
Accumulated % of solubilized of remaining active substance at a given time (min) ([1]; 8 min): 3.8%
Accumulated % of solubilized of remaining active substance at a given time (min) ([1]; 9 min): 4.2%
Accumulated % of solubilized of remaining active substance at a given time (min) ([1]; 10 min): 4.6%
Accumulated % of solubilized of remaining active substance at a given time (min) ([1]; 20 min): 8.8%

Structure (SMILES): Cc1cn(-c2cc(NC(=O)c3ccc(C)c(Nc4nccc(-c5cccnc5)n4)c3)cc(C(F)(F)F)c2)cn1 [Exp 1, Nilotinib HCl]
% solubilized 30 min. [2, 3]: 0.20%
AUC/ 90 min. Mg/min/L ([2]; nilotinib, FaSSIF solution (pH 6.5), Area Under the Curve during 90 minutes dissolution, HCl): 13.0 Mg/min/L

Structure (SMILES): Cc1cn(-c2cc(NC(=O)c3ccc(C)c(Nc4nccc(-c5cccnc5)n4)c3)cc(C(F)(F)F)c2)cn1 [Exp 500, nilotinib HCl]
Initial Dissolution Rate [1]: 0.27

Results, then the compound that gave them:

Initial Dissolution Rate [1]: 2.2
Structure (SMILES): COc1cc2ncnc(Nc3ccc(F)c(Cl)c3)c2cc1OCCCN1CCOCC1 [Exp 540, gefitinib]

AUC/ 80 min. Mg/min/L ([2]; dasatinib): 2396 Mg/min/L
% solubilized 40 min. ([2]; dasatinib, after 40 minutes dissolution in FaSSIF solution (pH 6.5)): 6.0%
Structure (SMILES): Cc1nc(Nc2ncc(C(=O)Nc3c(C)cccc3Cl)s2)cc(N2CCN(CCO)CC2)n1 [Exp 138, dasatinib]

Conc (mg/L) 3 min ([2]; pH 6.5): 0.3 mg/L
% solubilized 40 min. ([2]; 40 min, pH 6.5): 0.1%
Conc (mg/L) 40 min ([2]; 40 min, pH 6.5): 0.3 mg/L
Conc (mg/L) 80 min ([2]; pH 6.5): 0.4 mg/L
Structure (SMILES): CCCS(=O)(=O)Nc1ccc(F)c(C(=O)c2c[nH]c3ncc(-c4ccc(Cl)cc4)cc23)c1F [Exp 164, vemurafenib]

Initial Dissolution Rate [1]: 0.47
Structure (SMILES): CNC(=O)c1cc(Oc2ccc(NC(=O)Nc3ccc(Cl)c(C(F)(F)F)c3)cc2)ccn1 [Exp 560, sorafenib tosylate]

Initial Dissolution Rate [1]: 6.6
Structure (SMILES): C[C@@H](Oc1cc(-c2cnn(C3CCNCC3)c2)cnc1N)c1c(Cl)ccc(F)c1Cl [Exp 570, crizotinib]

AUC/ 80 min. Mg/min/L ([2]; gefitinib): 5967 Mg/min/L
Structure (SMILES): COc1cc2ncnc(Nc3ccc(F)c(Cl)c3)c2cc1OCCCN1CCOCC1 [Exp 131, gefitinib]

Conc (mg/L) 5 min ([2]; lapatinib, 5 minutes dissolution in FaSSIF solution (pH 6.5)): 2.9 mg/L
Conc (mg/L) 30 min ([2]; lapatinib, 30 minutes dissolution in FaSSIF solution (pH 6.5)): 6.0 mg/L
Conc (mg/L) 90 min ([2]; lapatinib, 90 minutes dissolution in FaSSIF solution (pH 6.5)): 6.5 mg/L
AUC/ 90 min. Mg/min/L ([2]; lapatinib, Area Under the Curve during 90 minutes dissolution in FaSSIF solution (pH 6.5)): 494 Mg/min/L
% solubilized 30 min. ([2]; lapatinib, after 30 minutes dissolution in FaSSIF solution (pH 6.5)): 0.3%
Structure (SMILES): CS(=O)(=O)CCNCc1ccc(-c2ccc3ncnc(Nc4ccc(OCc5cccc(F)c5)c(Cl)c4)c3c2)o1 [Exp 110, lapatinib base]

Conc (mg/L) 40 min ([2]; 40 min, pH 6.5): 343.51 mg/L
Structure (SMILES): CNC(=O)c1cc(Oc2ccc(NC(=O)Nc3ccc(Cl)c(C(F)(F)F)c3)cc2)ccn1 [Exp 142, sorafenib tosylate]
